From patent publication US20170369529A1, “CELL PENETRATING PEPTIDES” (Hoffmann-La Roche Inc., priority 2014, published 2017) come the findings set out here.

What all share (assay type): cell-based
The subject of one assay is HeLa cells. In words: Cell penetration (cellular uptake by confocal microscopy) in HeLa cells. The note with it: 2 μM CPP; for penetration of HeLa cells (in words) / localization of fluorescence in HeLa cells: confocal microscopy; for penetration of HeLa cells (in words): intracellular signal; for cell penetration, HeLa(t2 h): t 2 h. The method, then:
(§1) The peptides of the invention were tested for cell penetration in HeLa and HEK293T cell lines.
(§2) Materials: The HeLa (DSMZ) and HEK293T cells were maintained in growth media and then passaged every 2-3 days. Growth media for HeLa cells was RPMI 1640, 10% fetal calf serum, MEM-non-essential amino acids, sodium pyruvate and L-glutamine (GIBCO). Growth media for HEK293T DMEM was supplemented with 10% fetal calf serum, MEM-non-essential amino acids, sodium pyruvate and glutamine (all GIBCO).
(§3) Methods and Procedures: Cells were plated onto μ-slide 8 well chambered coverslips (IBIDI) with ibidi standard-bottom and cultured overnight. Peptide stocks were prepared in MillQ and were diluted in cell growth media for cellular uptake studies. Cells were carefully washed with culture medium without fetal calf serum, incubated with 2 μM CPP concentration in absence of fetal calf serum and analyzed by confocal microscopy regarding uptake efficiency and localization over 2 h at 37° C. Finally, trypan blue (0.4% end concentration) was administered to quench cell surface fluorescence followed by an endpoint imaging step. Plates were imaged with an excitation at 488 nm and detection of fluorescence over 500-550 nm (fluorescein) using a TCS SP5 confocal microscope (Leica 174 Microsystems, Mannheim, Germany) equipped with an HCX PL APO 175 63×N.A. 1.2 water immersion lens and a temperature-controlled microscope stage.

The next assay relates to Jurkat. In words: Cell penetration (cellular uptake by confocal microscopy) in Jurkat cells. The note with it: t 2 h, 2 μM CPP, no fetal calf serum, 37° C., fluorescein fluorescence. The method, then:
as §3

The next assay has as its system HEK293T cells. In words: Cell penetration (cellular uptake by confocal microscopy) in HEK293T cells. As to conditions: 2 μM CPP; for cell penetration, HEK293T (t2 h): t 2 h, no fetal calf serum, 37° C., fluorescein fluorescence. The method, then: as §1, §2, §3
[1] abbreviates: no fetal calf serum, 37° C., fluorescein fluorescence.

Positions of bridges follow the written chain, without caps; N, C: chain ends. Non-standard residues stand in square brackets, D forms with d. Nle = CCCC[C@H](N)C(=O)O; AEEA = NCCOCCOCC(=O)O; Fluo = fluorescein

For “Fluo-(D-Met)-Ile-(D-Ile)-Leu-Ile-Ile-Gly-Ser-Thr-Ser-Arg-Asp-His-Nle-Val-Leu-His-Glu-Tyr-Val-Asn-Ala-Ala-Gly-Ile-Thr-Ado-NH2 (Fluo-[dM]I[dI]LIIGSTSRDH[Nle]VLHEYVNAAGIT-{AEEA-NH2}) [Example 5]”, the “penetration of HeLa cells (in words)” value in the assay with HeLa cells is listed as “low intracellular signals”. Further, in the assay on HeLa cells (setting [1]), the “cell penetration, HeLa(t2 h)” value was determined as 0.22. Further, the “cell penetration, Jurkat (t2 h)” value in the assay on Jurkat came out at 0.18. For the same substance, the “cell penetration, HEK293T (t2 h)” value with HEK293T cells worked out at 0.5.
Turning to “Fluo-Met-Ile-Ile-Leu-Ile-Ile-Gly-Ser-Thr-Ser-Arg-Asp-His-Met-Val-Leu-His-Glu-Tyr-Val-Asn-Ala-Ala-Gly-Ile-Thr-NH2 (fluorescein-MIILIIGSTSRDHMVLHEYVNAAGIT-NH2) [Example 1]”, in the assay on HeLa cells, the “localization of fluorescence in HeLa cells” value is “localized in endosomes and cytosol”; the “penetration of HeLa cells (in words)” value is reported as “high”. In addition, the “cell penetration, HeLa (t30 min)” value with HeLa cells (t 30 min, no fetal calf serum, 37° C., fluorescein fluorescence) stood at 0.13. The “cell penetration, HeLa(t2 h)” value with HeLa cells (setting [1]) is 0.11.
As for “Fluo-Met-Ile-Ile-Leu-Ile-Ile-Met-Gly-Val-Ala-Asp-Leu-Ile-Lys-Lys-Phe-Glu-Ser-Ile-Ser-Lys-Glu-Glu-NH2 [Example 6]”, the “penetration of HeLa cells (in words)” value in the assay with HeLa cells is recorded as “low intracellular signals”. In addition, the “cell penetration, HeLa(t2 h)” value in the assay on HeLa cells (setting [1]) turned out to be 0.14. The “cell penetration, Jurkat (t2 h)” value with Jurkat is 0.44. For the same substance, in the assay with HEK293T cells, the “cell penetration, HEK293T (t2 h)” value came to 0.08.
Take “Fluo-Nle-Ile-Ile-Leu-Ile-Ile-Gly-Ser-Thr-Ser-Arg-Asp-His-Nle-Val-Leu-His-Glu-Tyr-Val-Asn-Ala-Ala-Gly-Ile-Thr-Ado-NH2 (Fluo-[Nle]IILIIGSTSRDH[Nle]VLHEYVNAAGIT-{AEEA-NH2}) [Example 4]”: the “cell penetration, HeLa(t2 h)” value in the assay with HeLa cells (setting [1]) was found to be 0.12. Further, the “cell penetration, Jurkat (t2 h)” value with Jurkat was found to be 0.85. In addition, the “cell penetration, HEK293T (t2 h)” value in the assay on HEK293T cells is recorded as 0.16.
For the substance “Fluo-Phe-Ile-cyclo(Asp-Ile-Ile-Ile-Lys)-Ile-Leu-Leu-Ile-Gly-Ser-Thr-Ser-Arg-Asp-His-Nle-Val-Leu-His-Glu-Tyr-Val-Asn-Ala-Ala-Gly-Ile-Thr-Ado-NH2 (Fluo-FIDIIIKILLIGSTSRDH[Nle]VLHEYVNAAGIT-{AEEA-NH2}; lactam 3-7) [Example 7]”, in the assay with HeLa cells, the “localization of fluorescence in HeLa cells” value was “localized in endosomes” and the “penetration of HeLa cells (in words)” value is recorded as “high”. The “cell penetration, HeLa(t2 h)” value in the assay on HeLa cells (setting [1]) amounted to 0.28. Also, in the assay with Jurkat, the “cell penetration, Jurkat (t2 h)” value is listed as 1.35. In addition, the “localization of fluorescence in HEK293T cells” value in the assay on HEK293T cells (confocal microscopy) is “pronounced cytosolic and partly endosomal fluorescence”. Also, in the assay with HEK293T cells, the “cell penetration, HEK293T (t2 h)” value was 0.28.
Turning to “Fluo-cyclo(Lys-Ile-Ile-Ile-Ile-Asp)-Gly-Ser-Thr-Ser-Arg-Asp-His-Nle-Val-Leu-His-Glu-Tyr-Val-Asn-Ala-Ala-Gly-Ile-Thr-Ado-NH2 (Fluo-KIIIIDGSTSRDH[Nle]VLHEYVNAAGIT-{AEEA-NH2}; lactam 1-6) [Example 2]”, the “penetration of HeLa cells (in words)” value in the assay with HeLa cells is “low intracellular signals”. In addition, in the assay on HeLa cells (setting [1]), the “cell penetration, HeLa(t2 h)” value turned out to be 0.18. Besides, the “cell penetration, Jurkat (t2 h)” value in the assay with Jurkat came out at 0.9. Further, the “cell penetration, HEK293T (t2 h)” value in the assay on HEK293T cells turned out to be 0.23.
On to “Fluo-cyclo(Lys-Nle-Ile-Ile-Leu-Ile-Ile-Asp)-Gly-Ser-Thr-Ser-Arg-Asp-His-Nle-Val-Leu-His-Glu-Tyr-Val-Asn-Ala-Ala-Gly-Ile-Thr-Ado-NH2 (Fluo-K[Nle]IILIIDGSTSRDH[Nle]VLHEYVNAAGIT-{AEEA-NH2}; lactam 1-8) [Example 3]”, for which, in the assay with HeLa cells, the “penetration of HeLa cells (in words)” value was “low intracellular signals”. In addition, the “cell penetration, HeLa(t2 h)” value in the assay with HeLa cells (setting [1]) came to 0.28. Also, in the assay on Jurkat, the “cell penetration, Jurkat (t2 h)” value came to 0.77. For the same substance, in the assay with HEK293T cells, the “cell penetration, HEK293T (t2 h)” value came to 0.35.
